This assay deals with mRNAs of BDNF, NT-3, NGF and GR. Put plainly: mRNA expression of neurotrophic factors and glucocorticoid receptor in cortex of frontal lobe and hippocampus. The following applies: 24 hours after 3 weeks of stress with compound 8, RT-PCR relative to β actin. Format: in vivo, mice. As for the experimental part:
mRNA expressions of a brain-derived neurotrophic factor (hereinafter expressed as “BDNF”), neurotrophin-3 (hereinafter expressed as “NT-3”), a nervous growth factor (hereinafter expressed as “NGF”) and a glucocorticoid receptor (hereinafter expressed as “GR”) in a cortex of frontal lobe and a hippocampus of a mouse after stress were examined as follows. After 24 hours from completion of stress for 3 weeks in the same method as described in Example 2, mice administered with the compound 8 in each of the amounts of 0, 20, 100 and 500 μg/kg, at the same time as stress, and non-stressed mice administered with only a phosphoric acid buffer containing 0.1% DMSO were sacrificed and the cortexes of frontal lobes and hippocampi were excised respectively, and thereto were added TriZol. […]
The obtained precipitate was washed with 70% ethanol, dried and then dissolved in TE to form a total RNA sample. […] The fluorescence intensity of the band was read with a densitometer to digitalize and the obtained value was divided with a fluorescence intensity of a band of RT-PCR of β actin mRNA of an internal standard, which has been found separately, and a graph was formed assuming that the band value of a non-stressed mouse/β actin band value was 1.0. […]

For the molecule `CCCCCCC/C=C/C(=O)OCC` [Compound 8, trans-2-decenoic acid ethyl ester], the “expression of mRNAs of BDNF, NT-3, NGF and GR” value is given as “returned to the level of non-stressed examples”.

Source of the values: patent publication US8557864B2, “Agent having neurotrophic factor-like activity” (Nagoya Industrial Science Research Institute, priority 2007, dated 2013).
